Patent EP0912518B1, “SUBSTITUTED PYRIDINES AS SELECTIVE CYCLOOXYGENASE-2 INHIBITORS” (Merck Frosst Canada & Co., priority 1996, dated 1998)

How the values were obtained:
COX-2 = molecular target: T1, COX-2 (Homo sapiens, UniProt P35354); assay: Human whole blood assay, COX-2 (LPS-induced PGE2 production); type: cell-based; conditions: Cox-1 U937 IC50 divided by Cox-2 Whole Blood IC50
T1 sequence (P35354 18-604): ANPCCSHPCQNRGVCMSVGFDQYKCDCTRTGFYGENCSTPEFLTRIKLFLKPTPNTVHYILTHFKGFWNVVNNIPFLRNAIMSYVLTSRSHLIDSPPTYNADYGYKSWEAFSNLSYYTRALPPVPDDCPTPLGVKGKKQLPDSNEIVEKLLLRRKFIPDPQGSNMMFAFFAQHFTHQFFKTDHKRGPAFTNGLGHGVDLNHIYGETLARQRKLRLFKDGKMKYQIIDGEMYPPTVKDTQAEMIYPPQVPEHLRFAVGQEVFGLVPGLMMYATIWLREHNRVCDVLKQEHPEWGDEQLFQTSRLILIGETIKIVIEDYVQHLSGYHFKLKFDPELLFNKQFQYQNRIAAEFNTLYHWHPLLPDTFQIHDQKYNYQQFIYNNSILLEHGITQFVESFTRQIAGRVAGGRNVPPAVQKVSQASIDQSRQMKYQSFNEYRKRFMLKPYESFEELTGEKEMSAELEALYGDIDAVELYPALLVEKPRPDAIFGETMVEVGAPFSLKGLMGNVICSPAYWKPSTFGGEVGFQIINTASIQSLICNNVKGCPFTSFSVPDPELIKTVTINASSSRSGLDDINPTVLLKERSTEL
Description: As well, platelets in whole blood contain a large amount of the COX-1 enzyme. Immediately following blood clotting, platelets are activated through a thrombin-mediated mechanism. […] Thus, the effect of test compounds on TxB2 levels following blood clotting can be examined and used as an index for COX-1 activity. Therefore, the degree of selectivity by the test compound can be determined by measuring the levels of PGE2 after LPS induction (COX-2) and TxB2 following blood clotting (COX-1) in the same assay. Fresh blood is collected in heparinized tubes by venipuncture from both male and female volunteers. The subjects have no apparent inflammatory conditions and have not taken any NSAIDs for at least 7 days prior to blood collection. […] At the end of the incubation, the blood is centrifuged at 12,000 x g for 5 minutes to obtain plasma. A 100µL aliquot of plasma is mixed with 400µL of methanol for protein precipitation. The supernatant is obtained and is assayed for PGE2 using a radioimmunoassay kit (Amersham, RPA#530) after conversion of PGE2 to its methyl oximate derivative according to the manufacturer's procedure.

Rat Paw Edema = assay: Rat paw edema assay (carrageenan); type: in vivo; conditions: male Sprague-Dawley rats, po 1 hr before carrageenan, paw volume 3 hr later; for ED50: Rattus norvegicus
Experimental: Male Sprague-Dawley rats (150-200 g) are fasted overnight and are given, po, either vehicle (1% methocel or 5% Tween 80) or a test compound. One hr later, a line is drawn using a permanent marker at the level above the ankle in one hind paw to define the area of the paw to be monitored. The paw volume (V0) is measured using a plethysmometer (Ugo-Basile, Italy) based on the principle of water displacement. The animals are then injected subplantarly with 50 µl of 1% carrageenan solution in saline (FMC Corp, Maine) into the paw using an insulin syringe with a 25-gauge needle (i.e. 500 µg carrageenan per paw). Three hr later, the paw volume (V3) is measured and the increases in paw volume (V3 - VO) are calculated. The animals are sacrificed by CO2 asphyxiation and the absence or presence of stomach lesions scored. Data is compared with the vehicle-control values and percent inhibition calculated. All treatment groups are coded to eliminate observer bias.

COX-1 = molecular target: T2, COX-1 (Homo sapiens, UniProt P23219); assay: Assay of COX-1 activity from U937 cell microsomes; type: biochemical; conditions: U937 cells, PGE2 synthesis in presence of AA
T2 construct: endogenous in cells; host or cells: U937 (human) cells; 100,000 x g microsomal fraction
Experimental: Compounds are tested as inhibitors of cyclooxygenase activity in whole cell cyclooxygenase assays. […] Cells used for these assays are human osteosarcoma 143 cells (which specifically express COX-2) and human U-937 cells (which specifically express COX-1). […] U 937 cells are pelleted by centrifugation at 500 x g for 5 min and washed once with phosphate-buffered saline and repelleted. Cells are resuspended in homogenization buffer consisting of 0.1 M Tris-HCl, pH 7.4, 10 mM EDTA, 2 µg/ml leupeptin, 2 µg/ml soybean trypsin inhibitor, 2 µg/ml aprotinin and 1 mM phenyl methyl sulfonyl fluoride. […] Assays are performed in duplicate in a final volume of 250 µl. Initially, 5 µl of DMSO vehicle or drug in DMSO are added to 20 µl of 0.1 M Tris-HCl buffer, pH 7.4 containing 10 mM EDTA in wells of a 96-deepwell polypropylene titre plate. 200 µl of the microsomal preparation are then added and pre-incubated for 15 min at room temperature before addition of 25 µl of […] arachidonic acid in […] Tris-HCl and 10 mM EDTA, pH 7.4. Samples are incubated for 40 min at room temperature and the reaction is stopped by the addition of 25 µl of 1 N HCl. Samples are neutralized with 25 µl of 1 N NaOH prior to quantitation of PGE2 content by radioimmunoassay (Dupont-NEN or Amersham assay kits). […]

T2 sequence (P23219 24-599): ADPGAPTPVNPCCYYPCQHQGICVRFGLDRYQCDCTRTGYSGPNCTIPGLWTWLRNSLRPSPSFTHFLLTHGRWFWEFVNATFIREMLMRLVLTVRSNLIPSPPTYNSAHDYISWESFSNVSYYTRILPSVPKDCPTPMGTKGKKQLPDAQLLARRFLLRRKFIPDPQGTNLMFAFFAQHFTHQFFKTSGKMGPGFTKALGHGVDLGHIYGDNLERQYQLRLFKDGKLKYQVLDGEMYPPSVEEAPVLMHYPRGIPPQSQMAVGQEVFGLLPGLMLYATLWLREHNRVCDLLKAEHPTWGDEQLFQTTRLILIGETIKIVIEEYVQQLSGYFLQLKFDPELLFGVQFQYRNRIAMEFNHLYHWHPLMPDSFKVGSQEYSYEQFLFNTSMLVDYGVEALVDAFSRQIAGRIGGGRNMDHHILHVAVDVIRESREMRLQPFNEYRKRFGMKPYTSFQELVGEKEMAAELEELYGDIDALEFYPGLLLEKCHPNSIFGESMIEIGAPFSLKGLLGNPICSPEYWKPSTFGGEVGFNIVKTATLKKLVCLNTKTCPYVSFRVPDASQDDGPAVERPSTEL

Compound | Selectivity Ratio (COX-2) | ED50 (Rat Paw Edema) | other results
Cc1ccc(-c2ncc(Cl)cc2-c2ccc(S(C)(=O)=O)cc2)cn1 [Example 23, 5-Chloro-3-(4-methylsulfonyl)phenyl-2-(2-methyl-5-pyridinyl)pyridine] | – | 0.6 mg/kg | –
CS(=O)(=O)c1ccc(-c2cccnc2-c2ccccc2)cc1 [Aa, reference compound] | – | – | IC50 (COX-1): > 10 µM; Rat Paw Edema (ED50, mg/kg) (Rat Paw Edema): >10 mg/kg
CS(=O)(=O)c1ccc(-c2cc(C(F)(F)F)cnc2-c2cccnc2)cc1 [Example 7, 3-(4-Methylsulfonyl)phenyl-2-(3-pyridinyl)-5-trifluoromethylpyridine] | – | 1.7 mg/kg | –

Continued, in another order:

Selectivity Ratio (COX-2) | Compound | ED50 (Rat Paw Edema) | other results
0.45 | CS(=O)(=O)c1ccc(-c2cccnc2-c2ccc(F)cc2)cc1 [Ab, reference compound] | – | –
>8.3 | CS(=O)(=O)c1ccc(-c2cc(Br)cnc2-c2cccnc2)cc1 [Example 32] | – | –
